Assay results reported in patent publication US6841577B2, “Pesticidal activity of plant essential oils and their constituents” (Ecosmart Technologies, Inc., priority 1999, dated 2005).

Tests used:
[1] = system: heart of American cockroach (octopamine receptors); assay: Heartbeat after application to thoracic segment; type: in vivo; conditions: mean ±SD of three roaches; for Heart beat/30 sec 30 min after treatment: 300 μg applied to thoracic segment; for Heart beat/30 sec before treatment: baseline of the same roaches
Method: To further establish the effect of the purified naturally occurring plant essential oils and/or their constituents on the American cockroach, a 300 μg amount of the chemical was applied to the thoracic segment of an intact and alive American cockroach. The heart beats/30 seconds was measured. The heart of the cockroach is known to have a high concentration of octopamine receptors and the heart beat is considered an important measurement to indicate the effect of the applied chemicals to the octopamine receptors.

[2] = system: 2nd instar green peach aphid nymphs; assay: Cabbage leaf disc bioassay; type: in vivo
Method: A bioassay similar to that for S. litura larvae was used for additional larvae. Cabbage leaf discs were dipped in emulsified aqueous solutions, diluted 1:200 in water, on which 2nd instar green peach aphid nymphs were placed. For each treatment there was 10 aphids per disc with 5 replicates; each experiment was replicated in time (successive days) from 3-5 times. After 24 hours, aphids were reported as being (1) on the leaf disc and feeding; (2) alive, but walking off the disc; or (3) dead. In the field, aphids which cease feeding and abandon a host plant are very unlikely to survive.

[3] = system: American cockroach; assay: Cross walk jar test on pre-treated surface; type: in vivo
Method: In the test, a known amount of the test material was dissolved in a known volume of acetone and applied to small jars and all inner bottom surfaces were covered. The bottom surface of each jar is approximately 250 cm^2. One hour after the acetone had completely evaporated, five American cockroaches were introduced to each jar. Control jars were treated exactly as above but with the known amount of acetone only.
The results of the “cross walk” jar tests are in Table 8 in which the “4-blend” was dispersed as an aerosol and a dust in the jar.
In this test, the acetone solution of the test material was placed in the jar and the roach inserted into the jar after the acetone had evaporated.
Mortality was measured 24 hours after exposure.
The “4-blend” and the individual constituents of the “4-blend” were tested using 10 cockroaches for each “cross walk” treatment. In addition, pyrethrins were tested separately and mixed with the various components.
A concentration of 100 mg/jar was used for each individual alone. In the co-treatment experiment without pyrethrins, 20 mg/jar for each chemical was used. In the cotreatment experiment with pyrethrins, 20 mg/jar for the naturally occurring plant material was used. Pyrethrins was used at 2 mg/jar. […] It was noted above that the mortality is dependent upon concentration. […] Some synergism is found between pyrethrins and either α-terpineol or benzyl alcohol.

[4] = system: octopamine receptor sites; assay: 3H-OA binding to ventral nerve cord / synaptosomal membrane protein; design: species or system American cockroach (Periplaneta americana); conditions: for dpm 3H-OA/500 μg protein: Table 2; for cpm 3H-OA/500 μg protein: Table 3; for classification with respect to octopamine receptor sites (OAR): based on the binding data of Tables 1-3
Method: Different concentrations of unlabeled octopamine (OA) (20, 30, 40, 50, 60, 100 ng) were tested on the binding activity as a positive control. Test chemicals were dissolved in acetone before the assay. Different concentrations of the test chemicals were added directly to the protein preparation from ventral nerve cord. The same amount of solvent (1 μl 0.1%) were added to the control samples. All assays with test chemicals were run in the presence and absence of 50 ng OA. All chemicals were added to the protein extract 20 min prior the addition of radio labeled ^3H-OA(100,000 cpm/sample). After 30 min at 24° C. of the addition of ^3H-OA, the reaction was stopped by the addition of ice-cold Tris buffer, and the samples were filtered through GF/C membrane using water vacuum. After two washes each with 5 ml Tris buffer, the membrane was removed, air dried and the radioactivity was counted in 4 ml liquid scintillation solution. The specific binding was calculated as the difference between the values in the presence and absence of unlabeled OA. All data are calculated as the mean±standard deviation of 5 assays.
Additional tests were conducted on radio labeled octopamine using other purified naturally occurring materials as given in Tables 2 and 3.

[5] = system: American cockroach; assay: Lethal effect of injected test chemicals; type: in vivo; conditions: dead/10
Method: Further studies were conducted to determine the LD 50 of purified naturally occurring plant essential oils and/or their constituents. […] Ten roaches per dose were used. Another group of ten roaches received the same volume of vehicle only (0.5 μl) and used as a control group. Mortality was recorded 24, 48, and 72 hours after exposure.

[6] = 500 ng/ml, solvent control 1101 ± 120
[7] = 1000 ng/ml, solvent control 930 ± 89
[8] = 500 ng/ml, solvent control 1385 ± 101
[9] = 1000 ng/ml, solvent control 1915 ± 110

Compound: CC(=O)OCc1ccccc1 [Benzyl Acetate]
- Heart beat/30 sec 30 min after treatment [1]: 42 ± 1 beat/30 sec
- Heart beat/30 sec before treatment [1]: 45 ± 2 beat/30 sec

Compound: OCc1ccccc1 [Benzyl Alcohol]
- Heart beat/30 sec 30 min after treatment [1]: 39 ± 2 beat/30 sec
- Heart beat/30 sec before treatment [1]: 45 ± 3 beat/30 sec
- activity on green peach aphid nymphs, in words ([2]; 1:200 dilution): relatively inactive
- Percentage of aphids Walking (off disc) ([2]; diluted 1:200 in water, after 24 hours, n = 250, Table 16, control 23.4): 22.3%
- Percentage of aphids Dead ([2]; diluted 1:200 in water, after 24 hours, n = 250, Table 16, control 24.8): 32.8%
- Percentage of aphids Feeding ([2]; diluted 1:200 in water, after 24 hours, n = 250, Table 16, control 51.7): 44.5%
- mortality at 100 mg ([3]; Periplaneta americana, 24 h): 0%
- mortality at 100 mg ([3]; Periplaneta americana, 48 h): 20%
- mortality at 100 mg ([3]; Periplaneta americana, 72 h): 40%
- mortality at 10 mg ([3]; Periplaneta americana, inhaled or nasal): 100%

Compound: OC/C=C/c1ccccc1 [Cinnamic Alcohol]
- Heart beat/30 sec 30 min after treatment [1]: 54 ± 3 beat/30 sec
- Heart beat/30 sec before treatment [1]: 52 ± 2 beat/30 sec

Compound: CC(C)=CCCC(C)CCO (stereo not shown) [Citronellol]
- dpm 3H-OA/500 μg protein [4, 6]: 999 ± 65 dpm 3H-OA/500 μg protein
- dpm 3H-OA/500 μg protein [4, 7]: 557 ± 43 dpm 3H-OA/500 μg protein

Compound: CCOc1cc(C=O)ccc1O [Ethyl vanillin]
- cpm 3H-OA/500 μg protein [4, 8]: 1723 ± 119 cpm 3H-OA/500 μg protein
- classification with respect to octopamine receptor sites (OAR) [4]: Non-OAR Specific Toxicants

Compound: CC12CCC(CC1)C(C)(C)O2 [Eucaluptol, Eucalyptol]
- Mortality ([5]; 500 μg/roach injected into thoracic and abdominal segments, 24 hr.): 0/10
- Mortality ([5]; 500 μg/roach injected, 48 hr.): 0/10
- Mortality ([5]; 500 μg/roach injected, 72 hr., control 1/10): 0/10
- agonist/antagonist note to 3H-OA binding ([4]; 500 ng/ml): antagonist
- dpm 3H-OA/500 μg protein [4, 6]: 865 ± 45 dpm 3H-OA/500 μg protein
- cpm 3H-OA/500 μg protein [4, 8]: 1637 ± 095 cpm 3H-OA/500 μg protein
- dpm 3H-OA/500 μg protein [4, 7]: 653 ± 36 dpm 3H-OA/500 μg protein
- classification with respect to octopamine receptor sites (OAR) [4]: Non-OAR Specific Toxicants

Compound: COc1ccccc1O [Guaiacol]
- cpm 3H-OA/500 μg protein [4, 8]: 1787 ± 151 cpm 3H-OA/500 μg protein
- classification with respect to octopamine receptor sites (OAR) [4]: Non-OAR Specific Toxicants

Compound: COC(=O)c1ccccc1O [Methyl salicylate]
- activity/binding at octopamine receptor sites, in words [4]: antagonists which are most strongly bound
- agonist/antagonist note to 3H-OA binding ([4]; 500 ng/ml): antagonist
- cpm 3H-OA/500 μg protein [4, 8]: 0084 ± 009 cpm 3H-OA/500 μg protein
- classification with respect to octopamine receptor sites (OAR) [4]: extremely high OAR antagonists
- mortality at 10 mg ([3]; Periplaneta americana, 24 h): 0%
- mortality at 20 mg ([3]; Periplaneta americana, 24 h): 20%
- mortality at 30 mg ([3]; Periplaneta americana, 24 h): 40%
- mortality at 40 mg ([3]; Periplaneta americana, 24 h): 80%
- mortality at 50 mg ([3]; Periplaneta americana, 24 h): 100%
- pesticidal activity against cockroaches, in words ([3]; in vivo): high pesticidal activity

Compound: O=Cc1ccc2c(c1)OCO2 [Piperonal]
- cpm 3H-OA/500 μg protein [4, 8]: 1680 ± 131 cpm 3H-OA/500 μg protein
- classification with respect to octopamine receptor sites (OAR) [4]: Non-OAR Specific Toxicants

Compound: CC(=O)OCc1ccc2c(c1)OCO2 [Piperonyl acetate]
- agonist/antagonist note to 3H-OA binding ([4]; 500 ng/ml): antagonist
- cpm 3H-OA/500 μg protein [4, 8]: 1090 ± 092 cpm 3H-OA/500 μg protein
- cpm 3H-OA/500 μg protein [4, 9]: 519 ± 52 cpm 3H-OA/500 μg protein

Compound: OCc1ccc2c(c1)OCO2 [Piperonyl alcohol]
- agonist/antagonist note to 3H-OA binding ([4]; 500 ng/ml): antagonist
- cpm 3H-OA/500 μg protein [4, 8]: 1124 ± 083 cpm 3H-OA/500 μg protein
- cpm 3H-OA/500 μg protein [4, 9]: 862 ± 61 cpm 3H-OA/500 μg protein
